Results from patent US20080119412A1, “Polypeptides for Modulating Binding of Trp Channel Proteins and Trp- Associated Proteins” (NoNO Inc., priority 2003, published 2008).
Residues, ends and D or L forms follow the SMILES beside them. *: point of attachment. Biotin = O=C1N[C@H]2[C@H](CS[C@H]2CCCCC(=O)*)N1

What was measured:
INADL d3 [1] = target: T1, INADL d3 (Homo sapiens, UniProt Q8NI35); test: G assay, peptide binding to GST-PDZ fusion (Table 11); conditions: Table 11, titrations or binding assays
T1 construct: made in house; host or cells: E. coli (DH5alpha, BL21 or JM109)
T1 sequence (Q8NI35 with tags, fused parts or gaps): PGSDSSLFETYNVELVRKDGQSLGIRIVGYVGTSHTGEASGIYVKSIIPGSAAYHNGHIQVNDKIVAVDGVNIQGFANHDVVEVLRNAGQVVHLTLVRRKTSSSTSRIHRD
Protocol: (§6) The binding of labeled PL peptide (e.g., as listed in TABLE 2 and TABLE 4) to this surface is then measured. In a preferred embodiment, the assay is carried out as follows:
(§7) (1) A PDZ-domain polypeptide is bound to a surface, e.g. a protein binding surface. In a preferred embodiment, a GST/PDZ fusion protein containing one or more PDZ domains is bound to a polystyrene 96-well plate. […] In one embodiment, the GST/PDZ fusion protein is bound via an anti-GST antibody that is coated onto the 96-well plate. Adequate binding to the plate can be achieved when:
(§8) (2) Biotinylated PL peptides are allowed to react with the surface by addition of 50 μl per well of 20 μM solution of the biotinylated peptide in PBS/BSA for 10 minutes at 4° C., followed by an additional 20 minute incubation at 25° C. The plate is washed 3 times with ice cold PBS.
(§9) (3) The binding of the biotinylated peptide to the GST/PDZ fusion protein surface can be detected using a variety of methods and detectors known to one of skill in the art. In one embodiment, 100 μl per well of 0.5 μg/ml streptavidin-horseradish peroxidase (HRP) conjugate dissolved in BSA/PBS is added and allowed to react for 20 minutes at 4° C. The plate is then washed 5 times with 50 mM Tris pH 8.0 containing 0.2% Tween 20, and developed by addition of 100 μl per well of HRP-substrate solution (TMB, Dako) for 20 minutes at room temperature (RT). The reaction of the HRP and its substrate is terminated by addition of 100 μl per well of 1 M sulfuric acid, and the optical density (O.D.) of each well of the plate is read at 450 um.
(§10) (4) Specific binding of a PL peptide and a PDZ domain polypeptide is determined by comparing the signal from the well(s) in which the PL peptide and PDZ domain polypeptide are combined, with the background signal(s). […] Typically a specific or selective reaction will be at least twice background signal, more typically more than 5 times background, and most typically 10 or more times the background signal. […] Correspondingly, a statistical test (e.g. a T-test) comparing repeated measurements of the signal with -repeated measurements of the background will result in a p-value <0.05, more typically a p-value <0.01, and most typically a p-value <0.001 or less. As noted, in an embodiment of the G assay, the signal from binding of a given PL peptide to immobilized (surface bound) GST polypeptide alone is one suitable negative control (sometimes referred to as B1). Because all measurement are done in multiples (i.e. at least duplicate) the arithmetic mean (or, equivalently, average.) of several measurements is used in determining the binding, and the standard error of the mean is used in determining the probable error in the measurement of the binding. The standard error of the mean of N measurements equals the square root of the following: the sum of the squares of the difference between each measurement and the mean, divided by the product of (N) and (N−1). Thus, in one embodiment, specific binding of the PDZ protein to the platebound peptide is determined by comparing the mean signal (“mean S”) and standard error of the signal (“SE”) for a particular PL-PDZ combination with the mean B1.

ZO-1 d2 [2] = target: T2, ZO-1 d2 (Homo sapiens, UniProt Q07157, DEL264-264); test: G3 assay titration, GST-PDZ fusion / biotinylated peptide; type: binding; conditions: for ODmax (450 nm): Table 10, titration of peptides with ZO-1 d2
T2 construct: made in house; host or cells: E. coli (DH5alpha, BL21 or JM109)
T2 sequence (Q07157 with tags, fused parts or gaps DEL264-264): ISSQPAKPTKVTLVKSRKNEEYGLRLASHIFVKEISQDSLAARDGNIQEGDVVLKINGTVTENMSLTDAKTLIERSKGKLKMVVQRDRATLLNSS
Protocol: (§1) The G3 assay is identical to the G0 assay with the following exceptions. The peptides are typically present at 0.1 μM rather than 20 μM. The peptides are also pre-incubated with the HRP-streptavidin prior to adding to the assay plate. In the G0 assay, free peptide is incubated with the PDZ proteins prior to the addition of the HRP-streptavidin. Thus, for the G0 assay one can lose signal if the bound peptide dissociates from the PDZ protein prior to the addition of the HRP-streptavidin. In the G3 modified assay the HRP-streptavidin/peptide complex is added to the plate in one step, thus increasing the likelihood that all the bound peptide will be bound to HRP-streptavidin. The G3 modified assay increases the chance of observing weak interactions.
(§2) This example describes assays to identify binding between TRPM7 and PDZ domains. GST-PDZ fusions are produced that each contain an entire PDZ domain (or multiple PDZ domains), the collection encompassing approximately 90% of all PDZ domains identified in the human genome. (See Table 5 and Section V (PDZ Proteins and PL Protein Interactions Disclosure). Biotinylated peptide corresponding to 11 residues of Tat coupled to the C-terminal 9 amino acids of TRPM7 ([…]; SEQ ID NO:258) is synthesized and purified by HPLC.
(§3) • Nunc MaxiSorp 96 well Immuno-plate, Nunc • PBS pH 7.4 (phosphate buffered saline, 8 g NaCl, 0.29 g KCl, 1.44 g Na2HPO4, 0.24 g KH2PO4, add H2O to 1 liter and pH 7.4; 0.2 μm filter) • Assay Buffer: 2% BSA in PBS (20 g of bovine serum albumin per liter PBS, fraction V, ICN Biomedicals, cat#IC15142983 • Goat anti-GST polyclonal Ab, stock 5 mg/ml, stored at 4° C., Amersham Pharmacia cat#27-4577-01 • Dilute 1:1000 in PBS, final concentration 5 μg/ml. • HRP-Streptavidin, 2.5 mg/2 ml stock stored at 4° C., Zymed cat#43-4323, dilute 1:2000 into Assay buffer, final concentration of […] • Wash Buffer, PBS • Biotinylated peptides (HPLC purified, stock solution stored in −20° C. freezer) • GST-PRISM proteins (stock stored at −80° C., after 1st thaw store in −10° C. freezer) • TMB (3,3′,5,5′, teramethylbensidine), tablets, Sigma cat.#T5525 • Per plate, dissolve 1 tablet in 1 ml DMSO, add 9 ml Citrate/Phosphate buffer pH 5.4 and 2 μL H2O2 • 0.1 M H2SO4, Sigma cat.#S1526 • 12-w multichannel pipettor & tips • 50 ml reagent reservoirs, Costar#4870 • 50, 15 ml polypropylene conical tubes • Costar Transtar 96 Costar #7605 • Transtar 96 Cartridge Costar #7610 • Molecular Devices microplate reader (450 & 650 nm filters) with SoftMax Pro software *When using reagents stored at or 4° C. or −20° C., remove & keep on ice
(§4) • 1. Coat plate with 100 μl of 5 μg/ml anti-GST, overnight at 4° C. • 2. Dump contents of plate & out tap dry on paper towels • 3. Block with 200 μl Assay Buffer for 2 hrs at room temperature • 4. Prepare proteins at 5 μg/ml in Assay Buffer • 5. Wash 3× with cold PBS (4° C.), avoiding letting the plates dry out • 6. Add proteins at 50 μl per well, incubate 1 to 2 hrs at 4° C. • 7. Prepare peptides to desired concentration in Assay Buffer • 8. Wash 3× with cold PBS (4° C.), avoiding letting the plates dry out • 9. Add HRP-Streptavidin/peptide complex [prepared by incubating for 20 minutes at room temperature HRP-Streptavidin (1:2000) with the desired biotin-peptide concentration for 20 minutes at room temperature] at 50 μl per well on ice • 10. Place at room temperature for exactly 30 minutes • 11. Promptly wash 5× with PBS at room temperature • 12. Add 100 μl/well TMB substrate (write time on plate) • 13. Incubate in dark at room temperature for a maximum of 30 minutes • 14. Read plate at 25 minutes (650 nm), optional • 15. Stop reaction with 100 μl of 0.18 M H2SO4, 30 minutes after adding TMB • Take last reading at 450 nm soon after stopping reaction
(§5) The G3 assay was performed using 0.1 μM peptide representing 11 amino acids of Tat fused to the final 9 amino acids of TRPM7 ([…]; SEQ ID NO:258). […]

INADL d3 [3] = target: T1, INADL d3; test: as above; type: binding; conditions: for ODmax (450 nm): Table 10, titration of peptides with INADL d3
Protocol: as §1, §2, §3, §4, §5

ZO-1 d2 [4] = target: T2, ZO-1 d2; test: G assay, peptide binding to GST-PDZ fusion (Table 11); conditions: Table 11, titrations or binding assays
Protocol: as §6, §7, §8, §9, §10

TRPM2 = TRPM2 (Homo sapiens, UniProt O94759); conditions: binding to carboxy-terminal NUDT9 Nudix hydrolase domain; read-out: EC50, gating of TRPM2 channel; cited from earlier work
Chain of TRPM2 (O94759 whole entry, the tested form may be a part): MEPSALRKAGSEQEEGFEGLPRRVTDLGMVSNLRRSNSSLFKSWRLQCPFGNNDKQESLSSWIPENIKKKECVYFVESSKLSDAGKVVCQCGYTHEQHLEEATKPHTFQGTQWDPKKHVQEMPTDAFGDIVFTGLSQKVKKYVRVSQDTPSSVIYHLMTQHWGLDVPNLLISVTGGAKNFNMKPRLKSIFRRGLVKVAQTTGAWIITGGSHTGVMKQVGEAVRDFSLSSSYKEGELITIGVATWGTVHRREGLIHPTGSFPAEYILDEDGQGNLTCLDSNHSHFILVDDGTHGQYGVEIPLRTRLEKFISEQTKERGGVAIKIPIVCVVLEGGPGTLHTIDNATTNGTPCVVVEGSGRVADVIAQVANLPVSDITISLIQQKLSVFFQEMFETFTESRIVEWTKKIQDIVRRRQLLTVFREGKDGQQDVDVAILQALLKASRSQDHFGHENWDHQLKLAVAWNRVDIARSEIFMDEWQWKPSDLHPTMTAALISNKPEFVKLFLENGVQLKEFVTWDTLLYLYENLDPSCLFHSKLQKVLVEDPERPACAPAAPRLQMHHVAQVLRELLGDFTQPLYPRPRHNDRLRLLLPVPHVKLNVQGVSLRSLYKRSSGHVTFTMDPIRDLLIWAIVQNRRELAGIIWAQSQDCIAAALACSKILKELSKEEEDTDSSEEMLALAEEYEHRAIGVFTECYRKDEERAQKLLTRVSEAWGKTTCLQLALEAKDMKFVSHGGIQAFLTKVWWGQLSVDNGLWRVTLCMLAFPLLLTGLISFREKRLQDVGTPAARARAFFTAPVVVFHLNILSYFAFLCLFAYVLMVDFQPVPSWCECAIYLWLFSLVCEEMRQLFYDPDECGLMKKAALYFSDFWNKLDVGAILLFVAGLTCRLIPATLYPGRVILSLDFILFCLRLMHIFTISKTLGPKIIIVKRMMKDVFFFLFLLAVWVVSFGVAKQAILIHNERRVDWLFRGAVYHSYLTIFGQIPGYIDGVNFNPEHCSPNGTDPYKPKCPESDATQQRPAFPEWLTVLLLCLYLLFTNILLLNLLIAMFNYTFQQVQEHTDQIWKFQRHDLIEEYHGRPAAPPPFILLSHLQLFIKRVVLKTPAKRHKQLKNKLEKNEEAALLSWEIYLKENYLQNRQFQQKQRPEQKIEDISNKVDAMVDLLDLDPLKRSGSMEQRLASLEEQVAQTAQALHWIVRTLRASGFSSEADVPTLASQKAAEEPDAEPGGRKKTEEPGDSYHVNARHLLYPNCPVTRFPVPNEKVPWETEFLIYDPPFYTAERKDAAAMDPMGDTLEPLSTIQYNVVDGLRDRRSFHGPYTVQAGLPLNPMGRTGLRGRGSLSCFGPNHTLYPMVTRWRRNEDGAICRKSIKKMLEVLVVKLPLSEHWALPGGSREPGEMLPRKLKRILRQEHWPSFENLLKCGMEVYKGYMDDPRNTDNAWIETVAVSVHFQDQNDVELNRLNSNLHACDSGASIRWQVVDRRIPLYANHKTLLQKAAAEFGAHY

Structure (SMILES) | PDZ domain bound (INADL d3 [1]) | EC50 (ZO-1 d2 [2]) | ODmax (450 nm) (ZO-1 d2 [2]) | EC50 (INADL d3 [3]) | ODmax (450 nm) (INADL d3 [3]) | PDZ domain bound (ZO-1 d2 [4]) | EC50 (TRPM2)
C[C@H](NC(=O)[C@H](Cc1c[nH]c2ccccc12)NC(=O)[C@H](Cc1ccc(O)cc1)NC(=O)[C@H](CCCCN)NC(=O)[C@H](CCCNC(=N)N)NC(=O)[C@H](CC(=O)O)NC(=O)[C@@H](NC(=O)[C@H](CCCNC(=N)N)NC(=O)[C@H](CO)NC(=O)[C@H](CCCNC(=N)N)NC(=O)[C@H](CCCNC(=N)N)NC(=O)[C@H](CCCNC(=N)N)NC(=O)[C@H](CCC(N)=O)NC(=O)[C@H](CCCNC(=N)N)NC(=O)[C@H](CCCNC(=N)N)NC(=O)[C@H](CCCCN)NC(=O)[C@H](CCCCN)NC(=O)[C@H](CCCNC(=N)N)NC(=O)CNC(=O)[C@H](Cc1ccc(O)cc1)NC(=O)CCCC[C@@H]1SC[C@@H]2NC(=O)N[C@@H]21)[C@@H](C)O)C(=O)O [Peptide 1832] (Biotin-YGRKKRRQRRRSRTDRKYWA-OH; C-terminus assumed) | INADL D3 | < 0.02 µM | 2.10 | 0.2 µM | 0.60 | ZO-1 D2 | –
CC(C)C[C@H](NC(=O)[C@H](CO)NC(=O)[C@@H](NC(=O)[C@H](CC(C)C)NC(=O)[C@H](CCCNC(=N)N)NC(=O)[C@H](CC(=O)O)NC(=O)CNC(=O)[C@H](CCCNC(=N)N)NC(=O)[C@H](C)NC(=O)[C@H](CCCNC(=N)N)NC(=O)[C@H](CCCNC(=N)N)NC(=O)[C@H](CCCNC(=N)N)NC(=O)[C@H](CCC(N)=O)NC(=O)[C@H](CCCNC(=N)N)NC(=O)[C@H](CCCNC(=N)N)NC(=O)[C@H](CCCCN)NC(=O)[C@H](CCCCN)NC(=O)[C@H](CCCNC(=N)N)NC(=O)CNC(=O)[C@H](Cc1ccc(O)cc1)NC(=O)CCCC[C@@H]1SC[C@@H]2NC(=O)N[C@@H]21)C(C)C)C(=O)O [Peptide 1843] (Biotin-YGRKKRRQRRRARGDRLVSL-OH; C-terminus assumed) | – | 0.017 µM | 2.20 | < 2 µM | 1.20 | ZO-1 D2 | –
CC[C@H](C)[C@H](NC(=O)[C@H](CC(C)C)NC(=O)[C@H](CCCNC(=N)N)NC(=O)[C@H](CCCNC(=N)N)NC(=O)[C@H](CCC(=O)O)NC(=O)[C@H](CC(=O)O)NC(=O)[C@H](CCC(N)=O)NC(=O)[C@H](CCCNC(=N)N)NC(=O)[C@H](CCCNC(=N)N)NC(=O)[C@H](CCCNC(=N)N)NC(=O)[C@H](CCC(N)=O)NC(=O)[C@H](CCCNC(=N)N)NC(=O)[C@H](CCCNC(=N)N)NC(=O)[C@H](CCCCN)NC(=O)[C@H](CCCCN)NC(=O)[C@H](CCCNC(=N)N)NC(=O)CNC(=O)[C@H](Cc1ccc(O)cc1)NC(=O)CCCC[C@@H]1SC[C@@H]2NC(=O)N[C@@H]21)C(=O)N[C@H](C(=O)N[C@@H](CC(C)C)C(=O)O)C(C)C [Peptide 1842] (Biotin-YGRKKRRQRRRQDERRLIVL-OH) | – | 0.035 µM | 2.30 | < 1 µM | 1.90 | ZO-1 D2 | –
CC[C@H](C)[C@H](NC(=O)[C@@H](NC(=O)[C@H](CCCNC(=N)N)NC(=O)[C@H](CC(=O)O)NC(=O)[C@H](CO)NC(=O)[C@H](CCCNC(=N)N)NC(=O)[C@H](C)NC(=O)[C@H](CCCNC(=N)N)NC(=O)[C@H](CCCNC(=N)N)NC(=O)[C@H](CCCNC(=N)N)NC(=O)[C@H](CCC(N)=O)NC(=O)[C@H](CCCNC(=N)N)NC(=O)[C@H](CCCNC(=N)N)NC(=O)[C@H](CCCCN)NC(=O)[C@H](CCCCN)NC(=O)[C@H](CCCNC(=N)N)NC(=O)CNC(=O)[C@H](Cc1ccc(O)cc1)NC(=O)CCCC[C@@H]1SC[C@@H]2NC(=O)N[C@@H]21)[C@@H](C)O)C(=O)N[C@@H](Cc1c[nH]c2ccccc12)C(=O)N[C@@H](C)C(=O)O [Peptide 1829] (Biotin-YGRKKRRQRRRARSDRTIWA-OH; C-terminus assumed) | INADL D3 | 0.007 µM | 2.90 | – | 1.40 | ZO-1 D2 | –
CC(C)[C@H](NC(=O)[C@H](Cc1ccc(O)cc1)NC(=O)[C@H](Cc1ccc(O)cc1)NC(=O)[C@H](CCC(=O)O)NC(=O)[C@H](CCCCN)NC(=O)[C@H](CC(=O)O)NC(=O)[C@H](CCCCN)NC(=O)[C@H](CC(N)=O)NC(=O)[C@H](CCCCN)NC(=O)[C@H](CCCNC(=N)N)NC(=O)[C@H](CCCNC(=N)N)NC(=O)[C@H](CCCNC(=N)N)NC(=O)[C@H](CCC(N)=O)NC(=O)[C@H](CCCNC(=N)N)NC(=O)[C@H](CCCNC(=N)N)NC(=O)[C@H](CCCCN)NC(=O)[C@H](CCCCN)NC(=O)[C@H](CCCNC(=N)N)NC(=O)CNC(=O)[C@H](Cc1ccc(O)cc1)NC(=O)CCCC[C@@H]1SC[C@@H]2NC(=O)N[C@@H]21)C(=O)O [Peptide 1852] (Biotin-YGRKKRRQRRRKNKDKEYYV-OH) | – | < 0.02 µM | – | < 0.02 µM | – | – | –
Nc1ncnc2c1ncn2[C@@H]1O[C@H](COP(=O)(O)OP(=O)(O)OC[C@H]2OC(O)[C@H](O)[C@@H]2O)[C@@H](O)[C@H]1O (stereo partly drawn) [ADP ribose] | – | – | – | – | – | – | 100 µM
NC(=O)c1ccc[n+]([C@@H]2O[C@H](COP(=O)([O-])OP(=O)(O)OC[C@H]3O[C@@H](n4cnc5c(N)ncnc54)[C@H](O)[C@@H]3O)[C@@H](O)[C@H]2O)c1 [nicotinamide adenine dinucleotide] | – | – | – | – | – | – | 1000 µM
CC[C@H](C)[C@H](NC(=O)[C@H](CCC(N)=O)NC(=O)[C@H](Cc1ccc(O)cc1)NC(=O)[C@H](CCCCN)NC(=O)[C@H](CCCNC(=N)N)NC(=O)[C@H](CC(=O)O)NC(=O)[C@@H](NC(=O)[C@H](CCCNC(=N)N)NC(=O)[C@H](CO)NC(=O)[C@H](CCCNC(=N)N)NC(=O)[C@H](CCCNC(=N)N)NC(=O)[C@H](CCCNC(=N)N)NC(=O)[C@H](CCC(N)=O)NC(=O)[C@H](CCCNC(=N)N)NC(=O)[C@H](CCCNC(=N)N)NC(=O)[C@H](CCCCN)NC(=O)[C@H](CCCCN)NC(=O)[C@H](CCCNC(=N)N)NC(=O)CNC(=O)[C@H](Cc1ccc(O)cc1)NC(=O)CCCC[C@@H]1SC[C@@H]2NC(=O)N[C@@H]21)[C@@H](C)O)C(=O)O [Peptide 1839] (Biotin-YGRKKRRQRRRSRTDRKYQI-OH; C-terminus assumed) | INADL D3 | < 0.02 µM | 2.50 | 0.13 µM | 1.60 | – | –
